Measurements as given in ChEMBL document CHEMBL1124376, “Topically active carbonic anhydrase inhibitors. 2. Benzo[b]thiophenesulfonamide derivatives with ocular hypotensive activity” (J Med Chem, 1989).
Activity calls are given as the source filed them. The rule behind the calls is not given here.

The molecules below were run on Oryctolagus cuniculus (assay: Reduction in maximum Intra ocular pressure in the rabbit model of ocular hypertension, when treated with a minimum effective oral dose of 10 mg/Kg; NE is No Effect). Conditions: Eye.
Type: functional, organism-based

**Q.** How did the Activity turn out when `CC(=O)Nc1nnc(S(N)(=O)=O)s1` [ACETAZOLAMIDE] was run?
**A.** inactive

The molecules below were run on Oryctolagus cuniculus (assay: Reduction in maximum Intra ocular pressure in the rabbit model of ocular hypertension, when treated with a minimum effective topical dose of 0.25%). Conditions: not given.

**Q.** `CC(C)(C)C(=O)Oc1ccc2nc(S(N)(=O)=O)sc2c1` was tested. Which Activity did it give?
**A.** -7.8 mmHg

Each molecule was assayed on Oryctolagus cuniculus (assay: Reduction in maximum Intra ocular pressure in the rabbit model of ocular hypertension, when treated with a minimum effective topical dose of 10%). Conditions: not given.

**Q.** For `NS(=O)(=O)c1cc(Cl)c(Cl)c(S(N)(=O)=O)c1` [DICHLORPHENAMIDE], which Activity is on record?
**A.** -4.7 mmHg

These molecules were tested against T1, Carbonic anhydrase 2 (Homo sapiens, UniProt P00918) (assay: Concentration of inhibitor required to reduce the rate of carbonic anhydrase II catalyzed CO2 hydration by 50%.). Conditions: read-out: I50.

**Q.** For `CC(C)(C)C(=O)Oc1ccc2cc(S(N)(=O)=O)sc2c1`, which IC50 is on record?
**A.** 2.6 nM

**Q.** With `CC(=O)Oc1ccc2cc(S(N)(=O)=O)sc2c1` as the molecule, how does the IC50 read?
**A.** 4 nM

These molecules were tested on Oryctolagus cuniculus (assay: Reduction in maximum Intra ocular pressure in the rabbit model of ocular hypertension, when treated with a minimum effective topical dose of 5%). Conditions: not given.

**Q.** For `CC(=O)/N=c1/sc(S(N)(=O)=O)nn1C` [METHAZOLAMIDE], which Activity is on record?
**A.** -5.1 mmHg

Each molecule was assayed on Oryctolagus cuniculus (assay: Reduction in maximum Intra ocular pressure in the rabbit model of ocular hypertension, when treated with a minimum effective topical dose of 10%; NE means No Effect). Conditions: Eye.

**Q.** With `CCOc1ccc2nc(S(N)(=O)=O)sc2c1` as the molecule, how does the Activity read?
**A.** inactive

The molecules below were run on Oryctolagus cuniculus (assay: Reduction in maximum Intra ocular pressure in the rabbit model of ocular hypertension, when treated with a minimum effective topical dose of 0.05%). Conditions: not given.

**Q.** Which Activity does the source give for `NS(=O)(=O)c1cc2ccc(O)cc2s1` here?
**A.** -5.6 mmHg

**Q.** Which Activity does the source give for `CC(C)(C)C(=O)Oc1ccc2cc(S(N)(=O)=O)sc2c1` here?
**A.** -4.7 mmHg

Each molecule was assayed on Oryctolagus cuniculus (assay: Reduction in maximum Intra ocular pressure in the rabbit model of ocular hypertension, when treated with a minimum effective topical dose of 0.10%). Conditions: not given.

**Q.** For `NS(=O)(=O)c1cc2ccc(O)cc2s1`, which Activity is on record?
**A.** -6.6 mmHg

Tested on: Oryctolagus cuniculus
Assay: as above
Conditions: not given
Remark: another data set of the same source

**Q.** For `CC(=O)Oc1ccc2cc(S(N)(=O)=O)sc2c1`, which Activity is on record?
**A.** -5.3 mmHg

The molecules below were run against T1, Carbonic anhydrase 2 (assay: not given). Conditions: not given.

**Q.** How did the IC50 turn out when `COc1cccc2cc(S(N)(=O)=O)sc12` was run?
**A.** 50 nM

**Q.** With `NS(=O)(=O)c1cc2cc(CO)ccc2s1` as the molecule, how does the IC50 read?
**A.** 9 nM

**Q.** How did the IC50 turn out when `CN(C)C(=O)Oc1ccc2sc(S(N)(=O)=O)cc2c1` was run?
**A.** 5 nM

**Q.** How did the IC50 turn out when `NS(=O)(=O)c1cc2ccc(OCC(=O)O)cc2s1` was run?
**A.** 14 nM

**Q.** For `COc1ccc2cc(S(N)(=O)=O)sc2c1`, which IC50 is on record?
**A.** 8.8 nM

**Q.** `CC(=O)OCc1ccc2sc(S(N)(=O)=O)cc2c1` was tested. Which IC50 did it give?
**A.** 10 nM

**Q.** With `CC(=O)c1ccc2cc(S(N)(=O)=O)sc2c1` as the molecule, how does the IC50 read?
**A.** 6 nM

**Q.** How did the IC50 turn out when `CC(C)(C)N1CC(COc2ccc3cc(S(N)(=O)=O)sc3c2)OC1=O` (configuration not stated) was run?
**A.** 8 nM

**Q.** For `COc1cccc2sc(S(N)(=O)=O)cc12`, which IC50 is on record?
**A.** 12 nM

**Q.** `NS(=O)(=O)c1cc2c(O)cccc2s1` was tested. Which IC50 did it give?
**A.** 12 nM

**Q.** With `CN(C)CCSCc1ccc2sc(S(N)(=O)=O)cc2c1` as the molecule, how does the IC50 read?
**A.** 15 nM

**Q.** With `CC(C)(C)NCC(O)COc1ccc2cc(S(N)(=O)=O)sc2c1` (configuration not stated) as the molecule, how does the IC50 read?
**A.** 18 nM

**Q.** How did the IC50 turn out when `COCc1ccc2sc(S(N)(=O)=O)cc2c1` was run?
**A.** 9 nM

**Q.** Which IC50 does the source give for `NS(=O)(=O)c1cc2ccc(OS(=O)(=O)O)cc2s1` here?
**A.** 6.8 nM

**Q.** How did the IC50 turn out when `NS(=O)(=O)c1cc2ccccc2s1` was run?
**A.** 5.2 nM

**Q.** `Nc1ccc2cc(S(N)(=O)=O)sc2c1` was tested. Which IC50 did it give?
**A.** 10 nM

**Q.** With `COc1ccc2sc(S(N)(=O)=O)cc2c1` as the molecule, how does the IC50 read?
**A.** 23 nM

**Q.** `NS(=O)(=O)c1cc2cc(CN3CCOCC3)ccc2s1` was tested. Which IC50 did it give?
**A.** 15 nM

**Q.** With `NS(=O)(=O)c1cc2cccc(O)c2s1` as the molecule, how does the IC50 read?
**A.** 11 nM

**Q.** How did the IC50 turn out when `NS(=O)(=O)c1cc2cc(O)ccc2s1` was run?
**A.** 6.2 nM

**Q.** `CC(C)COC(=O)Oc1ccc2cc(S(N)(=O)=O)sc2c1` was tested. Which IC50 did it give?
**A.** 5.6 nM

**Q.** With `NS(=O)(=O)c1cc2ccc(OP(=O)(O)O)cc2s1` as the molecule, how does the IC50 read?
**A.** 100 nM

**Q.** For `CN(C)Cc1ccc2sc(S(N)(=O)=O)cc2c1`, which IC50 is on record?
**A.** 12 nM

**Q.** For `CC(=O)Nc1ccc2cc(S(N)(=O)=O)sc2c1`, which IC50 is on record?
**A.** 4.8 nM

These molecules were tested on Oryctolagus cuniculus (assay: Reduction in maximum Intra ocular pressure in the rabbit model of ocular hypertension, when treated with a minimum effective oral dose of 1.25 mg/kg). Conditions: not given.
Type: functional, Eye

**Q.** With `CC(=O)Nc1nnc(S(N)(=O)=O)s1` [ACETAZOLAMIDE] as the molecule, how does the Activity read?
**A.** -6.3 mmHg

**Q.** With `NS(=O)(=O)c1cc2ccc(O)cc2s1` as the molecule, how does the Activity read?
**A.** -7.7 mmHg
